These are literature values, as cited in patent US11110113B2, “Compositions and methods for treating depression” (Gentelon, Inc., priority 2016, dated 2021).

For series [1] the following is noted: oral SAMe.
The subject of series [2] is Major Depressive Disorder. The settings on record: double-blind studies; intravenous or intramuscular (parenteral).
Series [3] relates to Major Depressive Disorder. The settings on record: trial versus placebo.
For a further series, the system named is cerebral tissue. The settings on record: six months, versus placebo; schizophrenia and Huntington's disease.

`Nc1nc2c(c(=O)[nH]1)N(C=O)C(CNc1ccc(C(=O)N[C@@H](CCC(=O)O)C(=O)O)cc1)CN2` (stereo partly shown) [folinic acid]: the depression scores entry in the series on depression (patients inadequately responsive to monotherapy with a serotonin reuptake inhibitor) is reported as “significant reduction”.

Take `C[S+](CC[C@H](N)C(=O)[O-])C[C@H]1O[C@@H](n2cnc3c(N)ncnc32)[C@H](O)[C@@H]1O` (stereo partly shown) [SAMe, S-Adenosyl methionine]: the half-life entry in series [1] is on record as “about 100 minutes”. In series [2], the “efficacy in treatment of Major Depressive Disorder” value is recorded as “effective”.

On to `CC/C=C\C/C=C\C/C=C\C/C=C\C/C=C\C/C=C\CCC(=O)O` [DHA, all-cis-4,7,10,13,16,19-docosahexaenoic acid], for which, in series [3], the “efficacy in major depressive disorder / mood-disordered population” value is recorded as “negative result”.

Regarding `Nc1nc2ncc(CNc3ccc(C(=O)N[C@@H](CCC(=O)O)C(=O)O)cc3)nc2c(=O)[nH]1` [folic acid], the depression symptomatology result in the series with depression (longer term supplementation, patients with unipolar and bipolar depression) was “statistically significant improvements”.

`CC/C=C\C/C=C\C/C=C\C/C=C\C/C=C\CCCC(=O)OCC` [E-EPA]: the “efficacy in major depressive disorder / mood-disordered population” value in series [3] is given as “advantage over placebo”. For the same compound, the “grey and white matter” value in the series with cerebral tissue is on record as “significant increase”.
